Source: ChEMBL document CHEMBL2311259, “Synthesis of novel chromene derivatives of expected antitumor activity” (Eur J Med Chem, 2013)

system: MCF7; assay: Ratio of colchicine IC50 to compound IC50 for human MCF7 cells by SRB assay; type: functional

Row | Structure (SMILES) | Ratio IC50
1 | COc1ccc2c(c1)Oc1ncn(N)c(=N)c1C2c1ccc(Cl)cc1 (mixture of isomers) | 1.5
2 | CCOc1ccc2c(c1)Oc1ncn3nc(-c4ccc(OC)cc4)nc3c1C2c1ccc(Cl)cc1 (racemic) | 1.5
3 | COc1ccc2c(c1)Oc1ncn(C)c(=N)c1C2c1ccc(Cl)cc1 (racemic) | 2
4 | CCOC(=O)c1nc2c3c(ncn2n1)Oc1cc(OCC)ccc1C3c1ccc(Cl)cc1 (racemic) | 2
5 | COc1ccc(-c2nc3c4c(ncn3n2)Oc2cc(OC)ccc2C4c2ccc(Cl)cc2)cc1 (racemic) | 1.5
